HELM strings list units from the 5' end as sugar, base in round brackets, then linkage (d deoxyribose, r ribose, m 2'-O-methyl, p phosphodiester). Strings are as the collection lists them; they lack the last nucleoside at the 3' end of the tested compound. [moe] = 2'-O-(2-methoxyethyl) (MOE); [sp] = phosphorothioate linkage; [m5C] = 5-methylcytosine
Target: GFAP
Assay: mouse, dose not given
Settings: ASO

Substance | 3 h FOB score
RNA1{[moe](A)[sp].[moe](T)p.[moe](T)p.[moe](T)p.[moe](G)p.[moe](T)p.d([m5C])[sp].d(T)[sp].d(T)[sp].d(T)[sp].d(A)[sp].d(T)[sp].d(T)[sp].d(T)[sp].d(T)[sp].d(T)[sp].[moe]([m5C])p.[moe]([m5C])[sp].[moe](T)}$$$$ (last 3' nucleoside missing) | 0 score 0-7
RNA1{[moe](G)[sp].[moe]([m5C])p.[moe](A)p.[moe](G)p.[moe]([m5C])[sp].d(A)[sp].d(T)[sp].d(T)[sp].d(T)[sp].d(G)[sp].d(T)[sp].d([m5C])[sp].d(T)[sp].d(T)[sp].d(T)[sp].[moe](A)p.[moe](T)p.[moe](T)[sp].[moe](T)}$$$$ (last 3' nucleoside missing) | 4 score 0-7
RNA1{[moe](G)[sp].[moe](G)p.[moe](G)p.[moe]([m5C])p.[moe](A)[sp].d([m5C])[sp].d(T)[sp].d(A)[sp].d([m5C])[sp].d([m5C])[sp].d(T)[sp].d(A)[sp].d(G)[sp].d(A)[sp].d(A)[sp].[moe](T)p.[moe](A)p.[moe]([m5C])[sp].[moe](T)}$$$$ (last 3' nucleoside missing) | 5 score 0-7
RNA1{[moe]([m5C])[sp].[moe](A)p.[moe](G)p.[moe](T)p.d(A)[sp].d(T)[sp].d(T)[sp].d(A)[sp].d([m5C])[sp].d([m5C])[sp].d(T)[sp].d([m5C])[sp].d(T)[sp].d(A)[sp].[moe]([m5C])p.[moe](T)p.[moe](A)p.[moe](G)[sp].[moe](T)}$$$$ (last 3' nucleoside missing) | 1 score 0-7
RNA1{[moe](T)[sp].[moe](T)p.[moe](T)p.[moe](G)p.[moe](T)[sp].d([m5C])[sp].d(T)[sp].d(T)[sp].d(T)[sp].d(A)[sp].d(T)[sp].d(T)[sp].d(T)[sp].[moe](T)p.[moe](T)p.[moe]([m5C])[sp].[moe]([m5C])}$$$$ (last 3' nucleoside missing) | 0 score 0-7
RNA1{[moe](G)[sp].[moe](G)p.[moe](G)p.[moe](T)p.[moe](G)[sp].d(A)[sp].d(G)[sp].d(T)[sp].d(T)[sp].d(T)[sp].d([m5C])[sp].d(T)[sp].d(T)[sp].d(G)[sp].d(T)[sp].[moe](T)p.[moe](A)p.[moe](G)[sp].[moe](T)}$$$$ (last 3' nucleoside missing) | 6 score 0-7
RNA1{[moe](T)[sp].[moe](T)p.[moe](T)p.[moe](A)p.[moe](T)[sp].d(T)[sp].d(T)[sp].d(T)[sp].d(T)[sp].d([m5C])[sp].d([m5C])[sp].d(T)[sp].d([m5C])[sp].[moe](A)p.[moe](G)p.[moe]([m5C])[sp].[moe](G)}$$$$ (last 3' nucleoside missing) | 1 score 0-7
RNA1{[moe](A)[sp].[moe](A)p.[moe](T)p.[moe]([m5C])p.[moe](A)[sp].d(A)[sp].d(G)[sp].d([m5C])[sp].d(T)[sp].d([m5C])[sp].d([m5C])[sp].d([m5C])[sp].d(A)[sp].d([m5C])[sp].d([m5C])[sp].[moe](T)p.[moe](G)p.[moe]([m5C])[sp].[moe]([m5C])}$$$$ (last 3' nucleoside missing) | 0 score 0-7
RNA1{[moe](A)[sp].[moe](G)p.[moe](G)p.[moe]([m5C])p.[moe](T)[sp].d(T)[sp].d(T)[sp].d(T)[sp].d(G)[sp].d(A)[sp].d(G)[sp].d(A)[sp].d(T)[sp].d(A)[sp].d(T)[sp].[moe]([m5C])p.[moe](T)p.[moe](T)[sp].[moe](G)}$$$$ (last 3' nucleoside missing) | 6 score 0-7
RNA1{[moe](G)[sp].[moe](G)p.[moe](G)p.[moe]([m5C])p.[moe](A)[sp].d(T)[sp].d(G)[sp].d(A)[sp].d(G)[sp].d([m5C])[sp].d([m5C])[sp].d(A)[sp].d(T)[sp].d([m5C])[sp].d([m5C])[sp].[moe](T)p.[moe]([m5C])p.[moe](T)[sp].[moe]([m5C])}$$$$ (last 3' nucleoside missing) | 3 score 0-7
RNA1{[moe](G)[sp].[moe](G)p.[moe](T)p.[moe](G)p.[moe]([m5C])p.d(T)[sp].d(T)[sp].d(T)[sp].d(T)[sp].d(G)[sp].d([m5C])[sp].d([m5C])[sp].d([m5C])[sp].d([m5C])[sp].d([m5C])[sp].[moe](T)p.[moe](G)p.[moe](T)[sp].[moe](A)}$$$$ (last 3' nucleoside missing) | 3 score 0-7
RNA1{[moe](T)[sp].[moe](G)p.[moe](A)p.[moe](G)p.[moe](A)[sp].d(T)[sp].d(A)[sp].d(T)[sp].d([m5C])[sp].d(T)[sp].d(T)[sp].d(G)[sp].d(T)[sp].d(G)[sp].d(A)[sp].[moe]([m5C])p.[moe]([m5C])p.[moe](T)[sp].[moe](T)}$$$$ (last 3' nucleoside missing) | 6 score 0-7
RNA1{[moe](G)[sp].[moe](T)p.[moe](T)p.[moe](T)p.[moe]([m5C])[sp].d(T)[sp].d(T)[sp].d(G)[sp].d(T)[sp].d(T)[sp].d(A)[sp].d(G)[sp].d(T)[sp].d(T)[sp].d(G)[sp].[moe](G)p.[moe](A)p.[moe](G)[sp].[moe](T)}$$$$ (last 3' nucleoside missing) | 7 score 0-7
RNA1{[moe](T)[sp].[moe](G)p.[moe](T)p.[moe]([m5C])p.[moe](T)[sp].d(T)[sp].d(T)[sp].d(A)[sp].d(T)[sp].d(T)[sp].d(T)[sp].d(T)[sp].d(T)[sp].d([m5C])[sp].d([m5C])[sp].[moe](T)p.[moe]([m5C])p.[moe](A)[sp].[moe](G)}$$$$ (last 3' nucleoside missing) | 2 score 0-7
RNA1{[moe](G)[sp].[moe]([m5C])p.[moe]([m5C])p.[moe](A)p.[moe](G)p.[moe](T)p.d(G)[sp].d(T)[sp].d([m5C])[sp].d(T)[sp].d(T)[sp].d([m5C])[sp].d(A)[sp].d([m5C])[sp].d(T)[sp].d(T)[sp].[moe](T)p.[moe](G)[sp].[moe]([m5C])}$$$$ (last 3' nucleoside missing) | 1 score 0-7
RNA1{[moe](T)[sp].[moe](G)p.[moe](T)p.[moe](A)p.d(T)[sp].d(T)[sp].d(A)[sp].d(G)[sp].d(G)[sp].d(A)[sp].d(T)[sp].d([m5C])[sp].d([m5C])[sp].d([m5C])[sp].[moe](A)p.[moe](T)p.[moe]([m5C])p.[moe](T)[sp].[moe](A)}$$$$ (last 3' nucleoside missing) | 3 score 0-7
RNA1{[moe](T)[sp].[moe](T)p.[moe](T)p.[moe](G)p.[moe](T)p.[moe]([m5C])p.d(T)[sp].d(T)[sp].d(T)[sp].d(A)[sp].d(T)[sp].d(T)[sp].d(T)[sp].d(T)[sp].d(T)[sp].d([m5C])[sp].[moe]([m5C])p.[moe](T)[sp].[moe]([m5C])}$$$$ (last 3' nucleoside missing) | 0 score 0-7
RNA1{[moe]([m5C])[sp].[moe](T)p.[moe](T)p.[moe](T)p.[moe](A)p.[moe](T)p.d(T)[sp].d(T)[sp].d(T)[sp].d(T)[sp].d([m5C])[sp].d([m5C])[sp].d(T)[sp].d([m5C])[sp].d(A)[sp].d(G)[sp].[moe]([m5C])p.[moe](G)[sp].[moe](A)}$$$$ (last 3' nucleoside missing) | 1 score 0-7
RNA1{[moe](T)[sp].[moe](T)p.[moe](G)p.[moe](G)p.d(T)[sp].d(G)[sp].d([m5C])[sp].d(T)[sp].d(T)[sp].d(T)[sp].d(T)[sp].d(G)[sp].d([m5C])[sp].d([m5C])[sp].[moe]([m5C])p.[moe]([m5C])p.[moe]([m5C])p.[moe](T)[sp].[moe](G)}$$$$ (last 3' nucleoside missing) | 1 score 0-7
RNA1{[moe](G)[sp].[moe](A)p.[moe](G)p.[moe](T)p.[moe]([m5C])[sp].d(T)[sp].d([m5C])[sp].d(A)[sp].d(G)[sp].d(T)[sp].d(T)[sp].d(T)[sp].d(T)[sp].d([m5C])[sp].d([m5C])[sp].[moe](T)p.[moe]([m5C])p.[moe]([m5C])[sp].[moe](A)}$$$$ (last 3' nucleoside missing) | 4 score 0-7
RNA1{[moe](T)[sp].[moe]([m5C])p.[moe](T)p.[moe](G)p.[moe]([m5C])[sp].d([m5C])[sp].d(A)[sp].d(T)[sp].d(T)[sp].d(T)[sp].d(A)[sp].d(T)[sp].d([m5C])[sp].d(T)[sp].d(G)[sp].[moe](T)p.[moe](G)p.[moe]([m5C])[sp].[moe](T)}$$$$ (last 3' nucleoside missing) | 0 score 0-7
RNA1{[moe](A)[sp].[moe]([m5C])p.[moe](A)p.[moe](T)p.d(T)[sp].d([m5C])[sp].d(A)[sp].d([m5C])[sp].d(T)[sp].d(A)[sp].d(A)[sp].d(T)[sp].d(A)[sp].d(T)[sp].[moe](T)p.[moe](T)p.[moe](A)p.[moe](A)[sp].[moe]([m5C])}$$$$ (last 3' nucleoside missing) | 0 score 0-7
RNA1{[moe](G)[sp].[moe](A)p.[moe]([m5C])p.[moe](T)p.[moe](A)[sp].d(T)[sp].d([m5C])[sp].d(T)[sp].d(A)[sp].d(G)[sp].d(G)[sp].d(A)[sp].d(T)[sp].d(T)[sp].d(T)[sp].[moe](G)p.[moe](G)p.[moe]([m5C])[sp].[moe](A)}$$$$ (last 3' nucleoside missing) | 5 score 0-7
RNA1{[moe](G)[sp].[moe](G)p.[moe](T)p.[moe](G)p.[moe](A)[sp].d(G)[sp].d(T)[sp].d(T)[sp].d(T)[sp].d([m5C])[sp].d(T)[sp].d(T)[sp].d(G)[sp].d(T)[sp].d(T)[sp].[moe](A)p.[moe](G)p.[moe](T)[sp].[moe](T)}$$$$ (last 3' nucleoside missing) | 7 score 0-7
RNA1{[moe](G)[sp].[moe](G)p.[moe](T)p.[moe]([m5C])p.[moe]([m5C])p.d(T)[sp].d(A)[sp].d(A)[sp].d(A)[sp].d(T)[sp].d(A)[sp].d(T)[sp].d(T)[sp].d([m5C])[sp].d(T)[sp].[moe](A)p.[moe](G)p.[moe](T)[sp].[moe]([m5C])}$$$$ (last 3' nucleoside missing) | 1 score 0-7
RNA1{[moe]([m5C])[sp].[moe](A)p.[moe](T)p.[moe](T)p.[moe](T)[sp].d(G)[sp].d(T)[sp].d([m5C])[sp].d(T)[sp].d(T)[sp].d(T)[sp].d(A)[sp].d(T)[sp].[moe](T)p.[moe](T)p.[moe](T)[sp].[moe](T)}$$$$ (last 3' nucleoside missing) | 0 score 0-7

— the OligoGym collection
